Experimental data as given in PubChem BioAssay (NCI).
Several values for one entry are separate records, joined by “and”; a condition that tells them apart may be missing. Equal entries are not always repeated.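 Results reflect a 48-hour exposure of cells in 96-well plates to compound at five concentrations. At the GI50, growth is halved. TGI is the concentration that stops growth completely.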

How the values were obtained:
Test in all cases: inhibition of tumour cell growth, NCI panel, 48 h
NCI-H23 lung = system: NCI-H23 lung
COLO 205 colon = system: COLO 205 colon
SN12C renal = system: SN12C renal
OVCAR-4 ovarian = system: OVCAR-4 ovarian
HCT-116 colon = system: HCT-116 colon
EKVX NSCLC = system: EKVX NSCLC
DU-145 prostate = system: DU-145 prostate
786-0 renal = system: 786-0 renal
CAKI-1 renal = system: CAKI-1 renal
NCI/ADR-RES ovarian = system: NCI/ADR-RES ovarian

SMILES	GI50 (NCI-H23 lung)	TGI (NCI-H23 lung)	GI50 (COLO 205 colon)	TGI (COLO 205 colon)	GI50 (SN12C renal)	TGI (SN12C renal)	GI50 (OVCAR-4 ovarian)	TGI (OVCAR-4 ovarian)	GI50 (HCT-116 colon)	TGI (HCT-116 colon)	GI50 (EKVX NSCLC)	TGI (EKVX NSCLC)	GI50 (DU-145 prostate)	TGI (DU-145 prostate)	GI50 (786-0 renal)	TGI (786-0 renal)	GI50 (CAKI-1 renal)	TGI (CAKI-1 renal)	GI50 (NCI/ADR-RES ovarian)	TGI (NCI/ADR-RES ovarian)
O=C1c2ccccc2-c2c1c1c(O)cccc1n2Cc1ccccn1	44.1 µM	> 100 µM	61 µM	> 100 µM	63.3 µM	> 100 µM	> 100 µM	> 100 µM	63.5 µM	> 100 µM	17.6 µM	70 µM	36.5 µM	> 100 µM	> 100 µM	> 100 µM	20.4 µM	> 100 µM	43.2 µM	> 100 µM
Cc1ccc(NC(=O)CSc2nnc3n(Cc4ccccc4)c(=O)c4c(C)c(C(N)=O)sc4n23)cc1	17.3 µM	> 100 µM	78 µM	> 100 µM	> 100 µM	> 100 µM	> 100 µM	> 100 µM	3.5 µM	> 100 µM	95 µM	> 100 µM	60.5 µM	> 100 µM	10 µM	49.7 µM	> 100 µM	> 100 µM	> 100 µM	> 100 µM
Cc1ccc(NS(=O)(=O)c2cccc(C#N)c2)c2[nH]cc(C#N)c12	27.5 µM and 27.7 µM	84.6 µM and > 100 µM	14.2 µM and 1.51 µM	53.7 µM and 37.3 µM	25.5 µM and 27.3 µM	> 94.7 µM	2.65 µM and 8.22 µM	87.2 µM and 51.2 µM	0.146 µM and 0.157 µM	> 100 µM	26.6 µM	80.9 µM	23.9 µM and 28.8 µM	> 100 µM	12 µM and 7.67 µM	55.7 µM and > 100 µM	3.69 µM and 15.7 µM	> 96.8 µM	14.2 µM and 2.49 µM	> 92.5 µM
O=C(N/N=C/c1ccc(O)cc1O)c1cccc(Nc2ccnc(C(F)(F)F)c2)c1	3.8 µM	27.4 µM	0.554 µM	15 µM	2.01 µM	26.1 µM	0.573 µM	51.5 µM	0.535 µM	20.5 µM	1.32 µM	37.3 µM	1.93 µM	20.9 µM	1.14 µM	10.6 µM	1.99 µM	22.5 µM	9.05 µM	> 90.1 µM
CN(CC(=O)Nc1nc2ccccc2[nH]1)S(=O)(=O)c1ccc(Cl)cc1	> 100 µM	> 100 µM	> 100 µM	> 100 µM	> 100 µM	> 100 µM	> 100 µM	> 100 µM	> 100 µM	> 100 µM	52.3 µM	> 100 µM	> 100 µM	> 100 µM	> 100 µM	> 100 µM	> 100 µM	> 100 µM	> 100 µM	> 100 µM
CC(CN(C)C)Oc1ccccc1NC1=C(Cl)C(=O)C(Nc2ccccc2OC(C)CN(C)C)=C(Cl)C1=O (stereo not given)	0.273 µM	0.915 µM	0.174 µM	0.359 µM	0.347 µM	0.853 µM	0.146 µM	0.279 µM	0.17 µM	0.344 µM	0.685 µM	1.81 µM	0.255 µM	0.686 µM	0.708 µM	2.01 µM	1.34 µM	2.72 µM	1.97 µM	8.53 µM
